# Experimental data as given in ChEMBL document CHEMBL1201862, “PubChem BioAssay data set” (2004).
#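 Compound exposure: 48 hours, 5 concentrations, 96-well plates. GI50 = concentration required for 50% inhibition of growth.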 Activity calls are given as the source filed them. Rule as the data show it: active = GI50 up to about 1.1 µM and inactive = higher.
# What was measured:
# Assay in all cases: NCI tumour cell line growth inhibition, 48 h
# [1] = tested on: DU-145
# [2] = tested on: UACC-257
# [3] = tested on: SF-539
# [4] = tested on: NCI/ADR-RES
# [5] = tested on: SN12C
# [6] = tested on: M14
# [7] = tested on: RPMI-8226
# [8] = tested on: EKVX
# [9] = tested on: K562
# [10] = tested on: TK-10
# [11] = tested on: MDA-MB-435
# [12] = tested on: CCRF-CEM
# [13] = tested on: COLO 205
# [14] = tested on: HCT-116
# [15] = tested on: OVCAR-8
# [16] = tested on: MOLT-4
# [17] = tested on: UACC-62
# [18] = tested on: PC-3
# [19] = tested on: HL-60
# [20] = tested on: NCI-H522
# [21] = tested on: SR
# [22] = tested on: NCI-H23
# [23] = tested on: NCI-H460
# [24] = tested on: MDA-MB-231
# [25] = tested on: KM12
# [26] = tested on: MDA-N
# [27] = tested on: NCI-H226
# [28] = tested on: SF-268
# [29] = tested on: U-251
# [30] = tested on: HOP-92
# [31] = tested on: OVCAR-3
# [32] = tested on: SF-295
# [33] = tested on: HCC 2998
# [34] = tested on: HCT-15
# [35] = tested on: SNB-19
# [36] = tested on: CAKI-1
# [37] = tested on: 786-0
# [38] = tested on: T47D
# [39] = tested on: Malme-3M
# [40] = tested on: HT-29
# [41] = tested on: ACHN
# [42] = tested on: HOP-62
# [43] = tested on: OVCAR-5
# [44] = tested on: A549
# [45] = tested on: RXF 393
# [46] = tested on: SW-620
# [47] = tested on: BT-549
# [48] = tested on: MCF7
# [49] = tested on: SNB-75
# [50] = tested on: Hs-578T
# [51] = tested on: SK-MEL-28
# [52] = tested on: OVCAR-4
# [53] = tested on: SK-MEL-5
# [54] = tested on: SK-OV-3
# [55] = tested on: UO-31
# [56] = tested on: SK-MEL-2
# [57] = tested on: LOX IMVI
# [58] = tested on: IGROV-1
# [59] = tested on: A498
structure (smiles),measurement,setting,value
N=C(N)NS(=O)(=O)c1ccc(Nc2c3ccccc3nc3ccc(C(=O)Nc4ccc(S(N)(=O)=O)cc4)cc23)cc1,GI50,[1],> 100 µM (inactive)
same,GI50,[2],> 100 µM (inactive)
same,GI50,[3],> 100 µM (inactive)
same,GI50,[4],> 100 µM (inactive)
same,GI50,[5],> 100 µM (inactive)
same,GI50,[6],> 100 µM (inactive)
same,GI50,[7],> 100 µM (inactive)
same,GI50,[8],> 100 µM (inactive)
same,GI50,[9],> 100 µM (inactive)
same,GI50,[10],> 100 µM (inactive)
same,GI50,[11],> 100 µM (inactive)
same,GI50,[12],> 100 µM (inactive)
same,GI50,[13],> 100 µM (inactive)
same,GI50,[14],> 100 µM (inactive)
same,GI50,[15],> 100 µM (inactive)
same,GI50,[16],> 100 µM (inactive)
same,GI50,[17],> 100 µM (inactive)
same,GI50,[18],> 100 µM (inactive)
same,GI50,[19],> 100 µM (inactive)
same,GI50,[20],> 100 µM (inactive)
same,GI50,[21],> 100 µM (inactive)
same,GI50,[22],> 100 µM (inactive)
same,GI50,[23],> 100 µM (inactive)
same,GI50,[24],> 100 µM (inactive)
same,GI50,[25],> 100 µM (inactive)
same,GI50,[26],> 100 µM (inactive)
same,GI50,[27],> 100 µM (inactive)
same,GI50,[28],> 100 µM (inactive)
same,GI50,[29],> 100 µM (inactive)
same,GI50,[30],> 100 µM (inactive)
same,GI50,[31],> 100 µM (inactive)
same,GI50,[32],> 100 µM (inactive)
same,GI50,[33],> 100 µM (inactive)
same,GI50,[34],> 100 µM
same,GI50,[35],> 100 µM (inactive)
same,GI50,[36],> 100 µM (inactive)
same,GI50,[37],> 100 µM (inactive)
same,GI50,[38],> 100 µM (inactive)
same,GI50,[39],> 100 µM (inactive)
same,GI50,[40],> 100 µM (inactive)
same,GI50,[41],> 100 µM (inactive)
same,GI50,[42],> 100 µM (inactive)
same,GI50,[43],> 100 µM (inactive)
same,GI50,[44],> 100 µM (inactive)
same,GI50,[45],> 100 µM (inactive)
same,GI50,[46],> 100 µM (inactive)
same,GI50,[47],> 100 µM (inactive)
same,GI50,[48],> 100 µM (inactive)
same,GI50,[49],> 100 µM (inactive)
same,GI50,[50],> 100 µM (inactive)
same,GI50,[51],> 100 µM (inactive)
same,GI50,[52],> 100 µM (inactive)
same,GI50,[53],> 100 µM (inactive)
same,GI50,[54],> 100 µM (inactive)
same,GI50,[55],> 100 µM (inactive)
same,GI50,[56],> 100 µM (inactive)
same,GI50,[57],> 100 µM (inactive)
same,GI50,[58],> 100 µM (inactive)
CCOC(=O)Cc1csc(N/N=C2\C(=O)Nc3ccccc32)n1,GI50,[1],76.7 µM (inactive)
same,GI50,[2],74.5 µM (inactive)
same,GI50,[3],30.7 µM (inactive)
same,GI50,[4],31.8 µM (inactive)
same,GI50,[5],> 100 µM (inactive)
same,GI50,[6],41.7 µM (inactive)
same,GI50,[7],36.5 µM (inactive)
same,GI50,[8],32.1 µM (inactive)
same,GI50,[9],40.4 µM (inactive)
same,GI50,[10],> 100 µM (inactive)
same,GI50,[11],55.6 µM (inactive)
same,GI50,[12],28.4 µM (inactive)
same,GI50,[13],28.6 µM (inactive)
same,GI50,[14],40.1 µM (inactive)
same,GI50,[15],40.6 µM (inactive)
same,GI50,[16],29 µM (inactive)
same,GI50,[17],42.2 µM (inactive)
same,GI50,[18],30.1 µM (inactive)
same,GI50,[19],19.7 µM (inactive)
same,GI50,[20],19 µM (inactive)
same,GI50,[22],32.6 µM (inactive)
same,GI50,[23],33.4 µM (inactive)
same,GI50,[24],43 µM (inactive)
same,GI50,[25],31.2 µM (inactive)
same,GI50,[26],41.8 µM (inactive)
same,GI50,[27],30.2 µM (inactive)
same,GI50,[28],66.8 µM (inactive)
same,GI50,[29],42.4 µM (inactive)
same,GI50,[30],42.2 µM (inactive)
same,GI50,[31],25.3 µM (inactive)
same,GI50,[32],38.7 µM (inactive)
same,GI50,[33],59 µM (inactive)
same,GI50,[34],41 µM
same,GI50,[35],26.9 µM (inactive)
same,GI50,[36],32.5 µM (inactive)
same,GI50,[37],69.5 µM (inactive)
same,GI50,[38],27.7 µM (inactive)
same,GI50,[59],27.4 µM (inactive)
same,GI50,[40],42.6 µM (inactive)
same,GI50,[41],32.4 µM (inactive)
same,GI50,[42],36.5 µM (inactive)
same,GI50,[43],> 100 µM (inactive)
same,GI50,[44],41.6 µM (inactive)
same,GI50,[45],87.1 µM (inactive)
same,GI50,[46],48.9 µM (inactive)
same,GI50,[47],32.7 µM (inactive)
same,GI50,[48],33.1 µM (inactive)
same,GI50,[49],28.2 µM (inactive)
same,GI50,[50],56.1 µM (inactive)
same,GI50,[52],56.9 µM (inactive)
same,GI50,[53],21.7 µM (inactive)
same,GI50,[54],49.4 µM (inactive)
same,GI50,[55],27.3 µM (inactive)
same,GI50,[56],52.6 µM (inactive)
same,GI50,[57],48.8 µM (inactive)
same,GI50,[58],17.4 µM (inactive)
